Reference: PubChem BioAssay (NCI)
Values joined by “and” are separate entries in the source; they are usually repeats but may differ in a detail not shown here. Equal values may be shown once.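 Exposure lasted 48 hours, with cells grown in 96-well plates and compounds tested at five concentrations. GI50 marks 50% less growth. TGI: total growth inhibition.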

Assays:
Experiment in all cases: growth of human tumour cells (NCI), 48 h
HS 578T breast = system: HS 578T breast
TK-10 renal = system: TK-10 renal
MALME-3M melanoma = system: MALME-3M melanoma
MOLT-4 leukemia = system: MOLT-4 leukemia
MCF7 breast = system: MCF7 breast
HCC-2998 colon = system: HCC-2998 colon
OVCAR-8 ovarian = system: OVCAR-8 ovarian
HT29 colon = system: HT29 colon
OVCAR-5 ovarian = system: OVCAR-5 ovarian
ACHN renal = system: ACHN renal
A498 renal = system: A498 renal
BT-549 breast = system: BT-549 breast
HCT-116 colon = system: HCT-116 colon
RXF 393 renal = system: RXF 393 renal
T-47D breast = system: T-47D breast
SK-MEL-2 melanoma = system: SK-MEL-2 melanoma
SF-539 CNS = system: SF-539 CNS
EKVX NSCLC = system: EKVX NSCLC
SNB-19 CNS = system: SNB-19 CNS
HOP-62 NSCLC = system: HOP-62 NSCLC
MDA-MB-231 breast = system: MDA-MB-231 breast
MDA-MB-435 = system: MDA-MB-435
UO-31 renal = system: UO-31 renal
786-0 renal = system: 786-0 renal
NCI-H226 lung = system: NCI-H226 lung
NCI/ADR-RES ovarian = system: NCI/ADR-RES ovarian
PC-3 prostate = system: PC-3 prostate
UACC-62 melanoma = system: UACC-62 melanoma
DU-145 prostate = system: DU-145 prostate
CAKI-1 renal = system: CAKI-1 renal
A549 NSCLC = system: A549 NSCLC
NCI-H23 lung = system: NCI-H23 lung
M14 melanoma = system: M14 melanoma
IGROV1 ovarian = system: IGROV1 ovarian
K-562 leukemia = system: K-562 leukemia
U251 CNS = system: U251 CNS
KM12 colon = system: KM12 colon
SNB-75 CNS = system: SNB-75 CNS
HL-60(TB) leukemia = system: HL-60(TB) leukemia
SF-295 CNS = system: SF-295 CNS
SK-MEL-28 melanoma = system: SK-MEL-28 melanoma
UACC-257 melanoma = system: UACC-257 melanoma
CCRF-CEM leukemia = system: CCRF-CEM leukemia
OVCAR-3 ovarian = system: OVCAR-3 ovarian
COLO 205 colon = system: COLO 205 colon
HCT-15 colon = system: HCT-15 colon
NCI-H522 lung = system: NCI-H522 lung
SK-OV-3 ovarian = system: SK-OV-3 ovarian
OVCAR-4 ovarian = system: OVCAR-4 ovarian
SF-268 CNS = system: SF-268 CNS
SN12C renal = system: SN12C renal
SK-MEL-5 melanoma = system: SK-MEL-5 melanoma
SW-620 colon = system: SW-620 colon
NCI-H460 lung = system: NCI-H460 lung
SR leukemia = system: SR leukemia
RPMI-8226 leukemia = system: RPMI-8226 leukemia
HOP-92 NSCLC = system: HOP-92 NSCLC

Question: What does the source list for `CC1(C)CC(=O)c2c(ccc(C(=O)C[C@H](N)CO)c2N)O1`?
Answer: GI50 (HS 578T breast): > 33.3 µM; TGI (HS 578T breast): > 33.3 µM; GI50 (TK-10 renal): > 17.5 µM and 5.99 µM; TGI (TK-10 renal): > 17.5 µM and 28.8 µM; GI50 (MALME-3M melanoma): > 33.3 µM; TGI (MALME-3M melanoma): > 33.3 µM; GI50 (MOLT-4 leukemia): 1.61 µM and 0.177 µM; TGI (MOLT-4 leukemia): 17.5 µM and 26.7 µM; TGI (MCF7 breast): 17.5 µM and > 33.3 µM; TGI (HCC-2998 colon): 17.5 µM and 12 µM; GI50 (OVCAR-8 ovarian): 5.68 µM and 2.17 µM; TGI (OVCAR-8 ovarian): 17.5 µM and > 33.3 µM; TGI (HT29 colon): 17.5 µM and > 33.3 µM; GI50 (OVCAR-5 ovarian): > 33.3 µM; TGI (OVCAR-5 ovarian): > 33.3 µM; GI50 (ACHN renal): 4.49 µM and 0.962 µM; TGI (ACHN renal): 17.5 µM and > 33.3 µM; GI50 (A498 renal): 2.86 µM and 6.73 µM; TGI (A498 renal): 17.5 µM and > 33.3 µM; GI50 (BT-549 breast): 6.44 µM and 2.87 µM; TGI (BT-549 breast): 17.5 µM and 25.4 µM; GI50 (HCT-116 colon): 1.36 µM and 2.01 µM; TGI (HCT-116 colon): 17.5 µM and > 33.3 µM; GI50 (RXF 393 renal): 4.45 µM and 5.14 µM; TGI (RXF 393 renal): 17.5 µM and > 33.3 µM; GI50 (T-47D breast): 5.94 µM and 3.52 µM; TGI (T-47D breast): 17.5 µM and > 33.3 µM; GI50 (SK-MEL-2 melanoma): 12.5 µM and 5.2 µM; TGI (SK-MEL-2 melanoma): 17.5 µM and > 33.3 µM; TGI (SF-539 CNS): 17.5 µM and 7.43 µM; GI50 (EKVX NSCLC): > 33.3 µM; TGI (EKVX NSCLC): > 33.3 µM; GI50 (SNB-19 CNS): 5.07 µM and 1.41 µM; TGI (SNB-19 CNS): 17.5 µM and > 33.3 µM; GI50 (HOP-62 NSCLC): 2.39 µM; TGI (HOP-62 NSCLC): 17.5 µM and > 33.3 µM; GI50 (MDA-MB-231 breast): > 17.5 µM; TGI (MDA-MB-231 breast): > 17.5 µM; GI50 (MDA-MB-435): 15.3 µM and 4.47 µM; TGI (MDA-MB-435): 17.5 µM and > 33.3 µM; GI50 (UO-31 renal): 1.73 µM and 0.409 µM; TGI (UO-31 renal): 17.5 µM and > 33.3 µM; GI50 (786-0 renal): > 17.5 µM and 5.1 µM; TGI (786-0 renal): > 33.3 µM; TGI (NCI-H226 lung): 17.5 µM and 23.7 µM; GI50 (NCI/ADR-RES ovarian): > 17.5 µM and 7.51 µM; TGI (NCI/ADR-RES ovarian): > 33.3 µM; GI50 (PC-3 prostate): 10.6 µM and 5.7 µM; TGI (PC-3 prostate): 17.5 µM and > 33.3 µM; TGI (UACC-62 melanoma): 10.5 µM and 10.6 µM; TGI (DU-145 prostate): 17.5 µM and > 33.3 µM; GI50 (CAKI-1 renal): 3.27 µM and 0.447 µM; TGI (CAKI-1 renal): 17.5 µM and 6.03 µM; GI50 (A549 NSCLC): 7 µM and 7.1 µM; TGI (A549 NSCLC): 17.5 µM and > 33.3 µM; GI50 (NCI-H23 lung): 6.42 µM and 0.733 µM; TGI (NCI-H23 lung): 17.5 µM and > 33.3 µM; TGI (M14 melanoma): 17.5 µM and 11.3 µM; GI50 (IGROV1 ovarian): 3.09 µM; TGI (IGROV1 ovarian): 17.5 µM; GI50 (K-562 leukemia): 2.27 µM and 0.251 µM; TGI (K-562 leukemia): 17.5 µM and > 33.3 µM; GI50 (U251 CNS): 1.47 µM and 0.247 µM; TGI (U251 CNS): 17.5 µM and > 33.3 µM; GI50 (KM12 colon): 1.23 µM and 0.189 µM; TGI (KM12 colon): 17.5 µM and > 33.3 µM; GI50 (SNB-75 CNS): > 17.5 µM and 3.1 µM; TGI (SNB-75 CNS): > 33.3 µM; GI50 (HL-60(TB) leukemia): 8.45 µM and 6.34 µM; TGI (HL-60(TB) leukemia): 17.5 µM and > 33.3 µM; GI50 (SF-295 CNS): 5.66 µM and 3.65 µM; TGI (SF-295 CNS): 17.5 µM and > 33.3 µM; TGI (SK-MEL-28 melanoma): 17.5 µM and > 33.3 µM; GI50 (UACC-257 melanoma): 20.3 µM; TGI (UACC-257 melanoma): > 33.3 µM; TGI (CCRF-CEM leukemia): 17.5 µM and > 33.3 µM; TGI (OVCAR-3 ovarian): 17.5 µM and > 33.3 µM; GI50 (COLO 205 colon): 4.92 µM and 2.07 µM; TGI (COLO 205 colon): 17.5 µM and > 33.3 µM; GI50 (HCT-15 colon): 0.768 µM and 0.114 µM; TGI (HCT-15 colon): 17.5 µM and 9.09 µM; GI50 (NCI-H522 lung): 2.57 µM and 4.58 µM; TGI (NCI-H522 lung): 17.5 µM; GI50 (SK-OV-3 ovarian): > 17.5 µM and 12.3 µM; TGI (SK-OV-3 ovarian): > 33.3 µM; GI50 (OVCAR-4 ovarian): > 33.3 µM; TGI (OVCAR-4 ovarian): > 33.3 µM; GI50 (SF-268 CNS): 5.03 µM and 0.594 µM; TGI (SF-268 CNS): 17.5 µM and > 33.3 µM; TGI (SN12C renal): 17.5 µM and > 33.3 µM; GI50 (SK-MEL-5 melanoma): 2.87 µM and 5.08 µM; TGI (SK-MEL-5 melanoma): 17.5 µM and > 33.3 µM; GI50 (SW-620 colon): 0.647 µM and 0.117 µM; TGI (SW-620 colon): 17.5 µM and > 33.3 µM; GI50 (NCI-H460 lung): 0.89 µM and 0.129 µM; TGI (NCI-H460 lung): 17.5 µM and > 33.3 µM; GI50 (SR leukemia): 0.612 µM and 0.0752 µM; GI50 (RPMI-8226 leukemia): 4.62 µM; TGI (RPMI-8226 leukemia): 17.5 µM; GI50 (HOP-92 NSCLC): 7.04 µM; TGI (HOP-92 NSCLC): 17.5 µM
